Inconclusive results and toxic doses are left out.
Tested on: P388 leukemia ip, CD2F1 mice, survival T/C
Assay: NCI In Vivo Anticancer Drug Screen. Data for tumor model P388 Leukemia (intraperitoneal) in CD2F1 (CDF1) mice
Conditions: endpoint: median survival time, higher = longer survival
Outline: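 Mice carrying the transplanted tumor received test compound or vehicle. Survival was recorded in each group, and the value is the treated-group measurement divided by that of the vehicle-treated control group.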

With `Cc1[nH]c(=O)[nH]c(=O)c1N(CCF)CCCl` the T/C (dose: 16.0 mg/kg/injection, schedule: Q01DX009 (ip), vehicle: acid diluted with saline) was 150 % of control, the T/C (dose: 16.0 mg/kg/injection, schedule: Q01DX009 (oral), vehicle: acid diluted with saline) was 113 % of control and the T/C (dose: 16.0 mg/kg/injection, schedule: Q01DX009 (oral), vehicle: other) was 115 % of control. The T/C (dose: 16.0 mg/kg/injection, schedule: Q01DX009 (sc), vehicle: acid diluted with saline) was 123 % of control, the T/C (dose: 16.0 mg/kg/injection, schedule: Q03HX008 (ip), vehicle: acid diluted with saline) was 106 % of control and the T/C (dose: 16.0 mg/kg/injection, schedule: Q03HX008 (oral), vehicle: acid diluted with saline) was 109 % of control. For the same compound, the T/C (dose: 16.0 mg/kg/injection, schedule: Q03HX008 (oral), vehicle: other) was 106 % of control, the T/C (dose: 16.0 mg/kg/injection, schedule: Q03HX016 (ip), vehicle: acid diluted with saline) was 105 % of control and the T/C (dose: 16.0 mg/kg/injection, schedule: Q03HX016 (oral), vehicle: acid diluted with saline) was 109 % of control. For the same compound, the T/C (dose: 16.0 mg/kg/injection, schedule: Q03HX024 (oral), vehicle: acid diluted with saline) was 109 % of control, the T/C (dose: 16.0 mg/kg/injection, schedule: Q03HX024 (oral), vehicle: other) was 100 % of control and the T/C (dose: 16.0 mg/kg/injection, schedule: Q04DX003 (ip), vehicle: acid diluted with saline) was 108 % of control. For the same compound, the T/C (dose: 16.0 mg/kg/injection, schedule: Q04DX003 (oral), vehicle: acid diluted with saline) was 113 % of control, the T/C (dose: 16.0 mg/kg/injection, schedule: Q04DX003 (oral), vehicle: other) was 111 % of control and the T/C (dose: 16.0 mg/kg/injection, schedule: Q08DX002 (ip), vehicle: acid diluted with saline) was 101 % of control. The T/C (dose: 23.0 mg/kg/injection, schedule: Q01DX009 (ip), vehicle: saline with Tween-80) was 150 % of control, the T/C (dose: 25.0 mg/kg/injection, schedule: Q04DX003 (ip), vehicle: saline) was 163 % of control and the T/C (dose: 32.0 mg/kg/injection, schedule: Q01DX001 (ip), vehicle: acid diluted with saline) was 103 % of control. For the same compound, the T/C (dose: 32.0 mg/kg/injection, schedule: Q01DX001 (ip), vehicle: saline) was 154 % of control, the T/C (dose: 32.0 mg/kg/injection, schedule: Q01DX001 (oral), vehicle: other) was 106 % of control and the T/C (dose: 32.0 mg/kg/injection, schedule: Q01DX001 (sc), vehicle: acid diluted with saline) was 99 % of control. For the same compound, the T/C (dose: 32.0 mg/kg/injection, schedule: Q01DX009 (ip), vehicle: acid diluted with saline) was 158 % of control, the T/C (dose: 32.0 mg/kg/injection, schedule: Q01DX009 (oral), vehicle: acid diluted with saline) was 118 % of control and the T/C (dose: 32.0 mg/kg/injection, schedule: Q03HX008 (ip), vehicle: acid diluted with saline) was 107 % of control. For the same compound, the T/C (dose: 32.0 mg/kg/injection, schedule: Q03HX016 (oral), vehicle: acid diluted with saline) was 109 % of control, the T/C (dose: 32.0 mg/kg/injection, schedule: Q04DX003 (ip), vehicle: acid diluted with saline) was 123 % of control and the T/C (dose: 32.0 mg/kg/injection, schedule: Q04DX003 (oral), vehicle: acid diluted with saline) was 109 % of control. The T/C (dose: 32.0 mg/kg/injection, schedule: Q04DX003 (oral), vehicle: other) was 108 % of control, the T/C (dose: 32.0 mg/kg/injection, schedule: Q08DX002 (ip), vehicle: acid diluted with saline) was 101 % of control and the T/C (dose: 32.0 mg/kg/injection, schedule: Q08DX002 (oral), vehicle: other) was 114 % of control. For the same compound, the T/C (dose: 64.0 mg/kg/injection, schedule: Q01DX001 (ip), vehicle: saline) was 159 % of control, the T/C (dose: 64.0 mg/kg/injection, schedule: Q01DX001 (oral), vehicle: acid diluted with saline) was 109 % of control and the T/C (dose: 64.0 mg/kg/injection, schedule: Q01DX001 (oral), vehicle: other) was 108 % of control. For the same compound, the T/C (dose: 64.0 mg/kg/injection, schedule: Q01DX001 (sc), vehicle: acid diluted with saline) was 100 % of control, the T/C (dose: 64.0 mg/kg/injection, schedule: Q04DX003 (oral), vehicle: acid diluted with saline) was 109 % of control and the T/C (dose: 64.0 mg/kg/injection, schedule: Q04DX003 (oral), vehicle: other) was 124 % of control. For the same compound, the T/C (dose: 64.0 mg/kg/injection, schedule: Q08DX002 (oral), vehicle: acid diluted with saline) was 109 % of control, the T/C (dose: 64.0 mg/kg/injection, schedule: Q08DX002 (oral), vehicle: other) was 115 % of control and the T/C (dose: 128.0 mg/kg/injection, schedule: Q01DX001 (oral), vehicle: acid diluted with saline) was 109 % of control. The T/C (dose: 128.0 mg/kg/injection, schedule: Q01DX001 (sc), vehicle: acid diluted with saline) was 99 % of control, the T/C (dose: 128.0 mg/kg/injection, schedule: Q01DX009 (oral), vehicle: acid diluted with saline) was 118 % of control and the T/C (dose: 128.0 mg/kg/injection, schedule: Q08DX002 (oral), vehicle: acid diluted with saline) was 100 % of control. The T/C (dose: 256.0 mg/kg/injection, schedule: Q01DX001 (oral), vehicle: acid diluted with saline) was 109 % of control, the T/C (dose: 256.0 mg/kg/injection, schedule: Q01DX001 (sc), vehicle: acid diluted with saline) was 100 % of control and the T/C (dose: 256.0 mg/kg/injection, schedule: Q04DX003 (oral), vehicle: acid diluted with saline) was 118 % of control. For the same compound, the T/C (dose: 256.0 mg/kg/injection, schedule: Q08DX002 (oral), vehicle: acid diluted with saline) was 104 % of control, the T/C (dose: 512.0 mg/kg/injection, schedule: Q01DX001 (oral), vehicle: acid diluted with saline) was 113 % of control and the T/C (dose: 512.0 mg/kg/injection, schedule: Q08DX002 (oral), vehicle: acid diluted with saline) was 109 % of control.
